Test results as given in patent US9902736B2, “1-oxo/acylation-14-acylated oridonin derivative, preparation method therefor and application thereof” (HANGZHOU BENSHENG PHARMACEUTICAL CO., LTD., priority 2012, dated 2018).
≈ marks a conversion by molar mass, not a printed value.

system: RPMI 8226; assay: Multiple myeloma cell growth inhibition, MTT, 72 h; type: cell-based; conditions: Homo sapiens
Description: Multiple myeloma cell lines: RPMI8226 (multiple myeloma), purchased from Fuxiang Bio-tech Co. Ltd., Shanghai, China.
(§1) 6000 well-growing cells were obtained and inoculated into wells of a 96-well cell culture plate. […] On the next day, the 1-oxo/acylated-14-acylated oridonin derivatives of different concentrations were added and mixed uniformly. The plate was placed in a carbon dioxide cell incubator (5% CO2) at 37° C. and incubated for 72 hours. Then the viable cell concentration was determined by MTT method.

IC50	IC90	Compound
0.59 µg/mL (≈ 1.08 µM)	3.84 µg/mL (≈ 7.04 µM)	C=C1C(=O)[C@]23[C@H](OC(=O)c4ccccc4Br)[C@H]1CC[C@H]2[C@@]12CO[C@@]3(O)[C@@H](O)[C@@H]1C(C)(C)CCC2=O [BS-OR-020]

system: NB4; assay: Leukemia cell growth inhibition, MTT, 72 h; type: cell-based, human; conditions: Homo sapiens, NB-4; 72 h, MTT
Source text: (§2) Leukemia cell lines: leukemia cell lines: K562/adr (drug-resistant, chronic myeloid leukemia, CML), NB4 (acute promyelocytic leukemia, AML), Kasumi-1 (acute myeloid leukemia M2 type, AML-M2), Jurkat (acute lymphoblastic leukemia, ALL), all of which were donated by Cancer Research Institute of Zhejiang University, China; and H9 (acute lymphoblastic leukemia, ALL), which was purchased from China Center for Type Culture Collection.
as §1, with “6000 well-growing leukemia cells were” for “6000 well-growing cells were”, “C. and was incubated for” for “C. and incubated for”

IC50	IC90	Compound
0.27 µg/mL (≈ 0.495 µM)	1.34 µg/mL (≈ 2.46 µM)	C=C1C(=O)[C@]23[C@H](OC(=O)c4ccccc4Br)[C@H]1CC[C@H]2[C@@]12CO[C@@]3(O)[C@@H](O)[C@@H]1C(C)(C)CCC2=O [BS-OR-020]

system: H9; assay: Leukemia cell growth inhibition, MTT, 72 h; type: cell-based, human; conditions: Homo sapiens, H9; 72 h, MTT
Source text: as §2
as §1, with “6000 well-growing leukemia cells were” for “6000 well-growing cells were”, “C. and was incubated for” for “C. and incubated for”

IC50	IC90	Compound
0.89 µg/mL (≈ 1.63 µM)	1.84 µg/mL (≈ 3.37 µM)	C=C1C(=O)[C@]23[C@H](OC(=O)c4ccccc4Br)[C@H]1CC[C@H]2[C@@]12CO[C@@]3(O)[C@@H](O)[C@@H]1C(C)(C)CCC2=O [BS-OR-020]

system: Jurkat; assay: Leukemia cell growth inhibition, MTT, 72 h; type: cell-based, human; conditions: Homo sapiens, Jurkat; 72 h, MTT
Source text: as §2
as §1, with “6000 well-growing leukemia cells were” for “6000 well-growing cells were”, “C. and was incubated for” for “C. and incubated for”

IC50	IC90	Compound
0.88 µg/mL (≈ 1.61 µM)	4.31 µg/mL (≈ 7.9 µM)	C=C1C(=O)[C@]23[C@H](OC(=O)c4ccccc4Br)[C@H]1CC[C@H]2[C@@]12CO[C@@]3(O)[C@@H](O)[C@@H]1C(C)(C)CCC2=O [BS-OR-020]

system: MGC-803; assay: Solid tumor cell growth inhibition, MTT, 72 h; type: cell-based, human; conditions: Homo sapiens, MGC-803; 72 h, MTT
Description: (§3) 6000 well-growing human solid tumor cells were obtained and inoculated into wells of a 96-well cell culture plate. The culture medium was DMEM High Glucose cell culture medium containing 10% fetal bovine serum. The plate was placed in a carbon dioxide cell incubator (5% CO2) at 37° C. and incubated for 24 hours. After added with 1-oxo/acylated-14-acylated oridonin derivatives of different concentration and mixed uniformly, the plate was placed in a carbon dioxide cell incubator (5% CO2) at 37° C. and incubated for 72 hours. Then the viable cell concentration was determined by MTT method.

IC50	IC90	Compound
1.65 µg/mL (≈ 3.03 µM)	8.86 µg/mL (≈ 16.2 µM)	C=C1C(=O)[C@]23[C@H](OC(=O)c4ccccc4Br)[C@H]1CC[C@H]2[C@@]12CO[C@@]3(O)[C@@H](O)[C@@H]1C(C)(C)CCC2=O [BS-OR-020]

system: Hep-2; assay: Solid tumor cell growth inhibition, MTT, 72 h; type: cell-based, human; conditions: Homo sapiens, HEp-2; 72 h, MTT
Description: as §3

IC50	IC90	Compound
1.92 µg/mL (≈ 3.52 µM)	7.4 µg/mL (≈ 13.6 µM)	C=C1C(=O)[C@]23[C@H](OC(=O)c4ccccc4Br)[C@H]1CC[C@H]2[C@@]12CO[C@@]3(O)[C@@H](O)[C@@H]1C(C)(C)CCC2=O [BS-OR-020]

system: Hela; assay: Solid tumor cell growth inhibition, MTT, 72 h; type: cell-based, human; conditions: Homo sapiens, HeLa; 72 h, MTT
Description: as §3

IC50	IC90	Compound
1.79 µg/mL (≈ 3.28 µM)	7.19 µg/mL (≈ 13.2 µM)	C=C1C(=O)[C@]23[C@H](OC(=O)c4ccccc4Br)[C@H]1CC[C@H]2[C@@]12CO[C@@]3(O)[C@@H](O)[C@@H]1C(C)(C)CCC2=O [BS-OR-020]

system: CNE; assay: Solid tumor cell growth inhibition, MTT, 72 h; type: cell-based, human; conditions: Homo sapiens, CNE; 72 h, MTT
Description: as §3

IC50	IC90	Compound
1.8 µg/mL (≈ 3.3 µM)	7.21 µg/mL (≈ 13.2 µM)	C=C1C(=O)[C@]23[C@H](OC(=O)c4ccccc4Br)[C@H]1CC[C@H]2[C@@]12CO[C@@]3(O)[C@@H](O)[C@@H]1C(C)(C)CCC2=O [BS-OR-020]

system: MG-63; assay: Solid tumor cell growth inhibition, MTT, 72 h; type: cell-based; conditions: Homo sapiens
Description: as §3

IC50	IC90	Compound
0.76 µg/mL (≈ 1.39 µM)	4.52 µg/mL (≈ 8.29 µM)	C=C1C(=O)[C@]23[C@H](OC(=O)c4ccccc4Br)[C@H]1CC[C@H]2[C@@]12CO[C@@]3(O)[C@@H](O)[C@@H]1C(C)(C)CCC2=O [BS-OR-020]

system: PANC-1; assay: Solid tumor cell growth inhibition, MTT, 72 h; type: cell-based; conditions: Homo sapiens
Description: as §3

IC50	IC90	Compound
2.32 µg/mL (≈ 4.25 µM)	6.09 µg/mL (≈ 11.2 µM)	C=C1C(=O)[C@]23[C@H](OC(=O)c4ccccc4Br)[C@H]1CC[C@H]2[C@@]12CO[C@@]3(O)[C@@H](O)[C@@H]1C(C)(C)CCC2=O [BS-OR-020]

system: U87-MG; assay: Solid tumor cell growth inhibition, MTT, 72 h; type: cell-based; conditions: Homo sapiens, U-87 MG
Description: as §3

IC50	IC90	Compound
1.19 µg/mL (≈ 2.18 µM)	3.69 µg/mL (≈ 6.77 µM)	C=C1C(=O)[C@]23[C@H](OC(=O)c4ccccc4Br)[C@H]1CC[C@H]2[C@@]12CO[C@@]3(O)[C@@H](O)[C@@H]1C(C)(C)CCC2=O [BS-OR-020]

system: PC-3; assay: Solid tumor cell growth inhibition, MTT, 72 h; type: cell-based; conditions: Homo sapiens
Description: as §3

IC50	IC90	Compound
2.56 µg/mL (≈ 4.69 µM)	7.07 µg/mL (≈ 13 µM)	C=C1C(=O)[C@]23[C@H](OC(=O)c4ccccc4Br)[C@H]1CC[C@H]2[C@@]12CO[C@@]3(O)[C@@H](O)[C@@H]1C(C)(C)CCC2=O [BS-OR-020]

system: Hep G2; assay: Solid tumor cell growth inhibition, MTT, 72 h; type: cell-based; conditions: Homo sapiens, HepG2
Description: as §3

IC50	IC90	Compound
1.68 µg/mL (≈ 3.08 µM)	7.35 µg/mL (≈ 13.5 µM)	C=C1C(=O)[C@]23[C@H](OC(=O)c4ccccc4Br)[C@H]1CC[C@H]2[C@@]12CO[C@@]3(O)[C@@H](O)[C@@H]1C(C)(C)CCC2=O [BS-OR-020]

system: CaEs-17; assay: Solid tumor cell growth inhibition, MTT, 72 h; type: cell-based; conditions: Homo sapiens, CaEs17
Description: as §3

IC50	IC90	Compound
1.78 µg/mL (≈ 3.26 µM)	7.28 µg/mL (≈ 13.3 µM)	C=C1C(=O)[C@]23[C@H](OC(=O)c4ccccc4Br)[C@H]1CC[C@H]2[C@@]12CO[C@@]3(O)[C@@H](O)[C@@H]1C(C)(C)CCC2=O [BS-OR-020]

system: RKO; assay: Solid tumor cell growth inhibition, MTT, 72 h; type: cell-based; conditions: Homo sapiens
Description: as §3

IC50	IC90	Compound
0.84 µg/mL (≈ 1.54 µM)	1.94 µg/mL (≈ 3.56 µM)	C=C1C(=O)[C@]23[C@H](OC(=O)c4ccccc4Br)[C@H]1CC[C@H]2[C@@]12CO[C@@]3(O)[C@@H](O)[C@@H]1C(C)(C)CCC2=O [BS-OR-020]

system: A549; assay: Solid tumor cell growth inhibition, MTT, 72 h; type: cell-based; conditions: Homo sapiens
Description: as §3

IC50	IC90	Compound
2.76 µg/mL (≈ 5.06 µM)	5.78 µg/mL (≈ 10.6 µM)	C=C1C(=O)[C@]23[C@H](OC(=O)c4ccccc4Br)[C@H]1CC[C@H]2[C@@]12CO[C@@]3(O)[C@@H](O)[C@@H]1C(C)(C)CCC2=O [BS-OR-020]

system: SK-OV-3; assay: Solid tumor cell growth inhibition, MTT, 72 h; type: cell-based; conditions: Homo sapiens, SK-OV-3; 72 h, MTT; read-out: IC50 SK-OV-3
Description: as §3

IC50	Compound
2.56 µg/mL (≈ 4.69 µM)	C=C1C(=O)[C@]23[C@H](OC(=O)c4ccccc4Br)[C@H]1CC[C@H]2[C@@]12CO[C@@]3(O)[C@@H](O)[C@@H]1C(C)(C)CCC2=O [BS-OR-020]

same assay, conditions: Homo sapiens, SK-OV-3; 72 h, MTT; read-out: IC90 SK-OV-3

IC90	Compound
7.07 µg/mL (≈ 13 µM)	C=C1C(=O)[C@]23[C@H](OC(=O)c4ccccc4Br)[C@H]1CC[C@H]2[C@@]12CO[C@@]3(O)[C@@H](O)[C@@H]1C(C)(C)CCC2=O [BS-OR-020]

system: Becap-37; assay: Solid tumor cell growth inhibition, MTT, 72 h; type: cell-based; conditions: Homo sapiens
Description: as §3

IC50	IC90	Compound
1.31 µg/mL (≈ 2.4 µM)	3.95 µg/mL (≈ 7.24 µM)	C=C1C(=O)[C@]23[C@H](OC(=O)c4ccccc4Br)[C@H]1CC[C@H]2[C@@]12CO[C@@]3(O)[C@@H](O)[C@@H]1C(C)(C)CCC2=O [BS-OR-020]

system: K562/ADR; assay: Leukemia cell growth inhibition, MTT, 72 h; type: cell-based; conditions: Homo sapiens
Source text: as §2
as §1, with “6000 well-growing leukemia cells were” for “6000 well-growing cells were”, “C. and was incubated for” for “C. and incubated for”

IC50	IC90	Compound
0.73 µg/mL (≈ 1.34 µM)	2.31 µg/mL (≈ 4.24 µM)	C=C1C(=O)[C@]23[C@H](OC(=O)c4ccccc4Br)[C@H]1CC[C@H]2[C@@]12CO[C@@]3(O)[C@@H](O)[C@@H]1C(C)(C)CCC2=O [BS-OR-020]

system: Kasumi-1; assay: Leukemia cell growth inhibition, MTT, 72 h; type: cell-based; conditions: Homo sapiens
Source text: as §2
as §1, with “6000 well-growing leukemia cells were” for “6000 well-growing cells were”, “C. and was incubated for” for “C. and incubated for”

IC50	IC90	Compound
0.76 µg/mL (≈ 1.39 µM)	2.85 µg/mL (≈ 5.23 µM)	C=C1C(=O)[C@]23[C@H](OC(=O)c4ccccc4Br)[C@H]1CC[C@H]2[C@@]12CO[C@@]3(O)[C@@H](O)[C@@H]1C(C)(C)CCC2=O [BS-OR-020]
